Where a name gives a salt, the structure may show the parent alone.
Columns and labels:
B16F10 tumour = assay: In vivo test, survival of mice with transplanted B16F10 tumour; set-up: species or system mouse; details: treated daily
Protocol: Mice are inoculated with 5×10^6 B16F10 tumour cells on day 0. The animals in which tumour cells are transplanted develop solid peritoneal tumours and are then treated daily with test substances or with the vehicle control. In the control group, 50% of the animals usually die between day 14 and 20. The test substances are administered in buffer or an organic solvent system comprising 20% methanol and 20% dimethyl sulphoxide in 0.7% sodium chloride solution.
The therapeutic result arises from the prolonging of the survival time of the treated animals. […] A therapeutic index can be estimated from the tolerance and prolonging of the survival time.

HT 29 = assay: Growth inhibition test (MTT) for cytotoxic properties; format: cell-based, human
Summary of the method: (§1)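 IC50 values come from an MTT read at 540 nm (5 h at 37 °C, 5 mg/ml MTT stock), taken on day 3 and day 6. Cells (HT 29, SW 480; 50,000 cells/ml in RPMI/10% FCS) were pre-cultured 1 day, then compound in DMSO was added.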

SW 480 = assay: as above; format: cell-based, human
Summary of the method: as §1

[1] = Acute toxicity, single administration; format: in vivo, nu/nu naked mice; details: for acute toxicity detected: dose of 400 mg/kg; for acute toxicity detected / individual dose of the substances which can be tolerated: single administration; for Individual dose tolerated in mg/kg of mouse, i.v.: single administration i.v., aqueous solution; for Individual dose tolerated in mg/kg of mouse, i.p.: single administration i.p., solution in dimethyl sulphoxide
Protocol: Determination of the Acute Toxicity of Glycoconjugates of Batracyline (Single Administration)
The acute toxicity of the batracyline derivatives was determined on nu/nu naked mice.
The substances administered i.v., as aqueous solutions, and the substances administered i.p., as solutions in dimethyl sulphoxide, were injected once in concentrations of up to 400 mg of substance per kg of mouse.
The individual dose tolerated was calculated from the decrease in the weight of the animals up to 21 days after administration and from the number of animals surviving.

B 16 F 10 = assay: Growth inhibition test (MTT) for cytotoxic properties; format: cell-based, mouse; details: Table 1b
Protocol: Growth Inhibition Test for Determination of the Cytotoxic Properties of Glycoconjugates of Batracyline and of Quinolone-a
The human colon cell lines SW 480 and HT 29 (ATCC no. CCL 228 and HBT-38) and the mouse melanoma cell line B 16 F 10 were cultured in Roux dishes in RPMI 1640 medium with addition of 10% FCS. The cultures were then trypsinized and taken up in RPMI plus 10% FCS to a cell count of 50,000 cells/ml. 100 μl of cell suspension/well were introduced into a 96 microwell plate and incubated for 1 day at 37° C. in a CO2 incubating cabinet. A further 100 μl of RPMI medium and 1 μl of dimethyl sulphoxide with the test substances were then added. The growth was checked after day 3 and day 6. 40 μl of MTT solution (3-(4,5-dimethylthiazol-2-yl)-2,5-diphenyltetrazoline bromide) with an initial concentration of 5 mg/ml of H2 O were added to each microwave. The plate was incubated for 5 hours in a CO2 incubating cabinet at 37° C. The medium was then sucked off and 100 μl of i-propanol/well were added. After shaking for 30 minutes with 100 μl of H2 O, the extinction was measured at 540 nm with a Titertek Multiskan MCC/340 (Flow).

[2] = Table 1a, glycoconjugates of batracyline

COc1cc([C@@H]2c3cc4c(cc3[C@@H](O[C@@H]3O[C@@H]5CO[C@@H](C)O[C@H]5[C@H](O)[C@H]3O)[C@H]3COC(=O)[C@H]23)OCO4)cc(OC)c1O [Etoposide, reference compound]
% survivors Day 0 (B16F10 tumour; 5 mg/kg): 100%
% survivors Day 20 (B16F10 tumour; 5 mg/kg): 90%
% survivors Day 25 (B16F10 tumour; 5 mg/kg): 80%
% survivors Day 30 (B16F10 tumour; 5 mg/kg): 80%
% survivors Day 35 (B16F10 tumour; 5 mg/kg): 70%

CC(NC(=O)C(N)CCCCNC(=S)Nc1ccc(OC2OC(CO)C(O)C(OCC(=O)[O-])C2O)cc1)C(=O)Nc1ccc2c(c1)CN1C(=O)c3ccccc3C1=N2.[Na+] [Example 3.33, N-{N^ε -[O-(3-O-Carboxymethyl-β-D-galactopyranosyl)-4-hydroxy-phenylamino-thiocarbonyl]-lysyl-D-alanyl}-batracyline, sodium salt]
IC50 (HT 29; [2]): 70 µM
IC50 (SW 480; [2]): 90 µM
acute toxicity detected [1]: no acute toxicity
individual dose of the substances which can be tolerated [1]: more than 200 mg of substance per kg of mouse
Individual dose tolerated in mg/kg of mouse, i.v. [1]: > 400 mg/kg of mouse

CC(NC(=O)C(CCCCNC(=S)Nc1ccc(OC2OC(CO)C(O)C(OCC(=O)[O-])C2O)cc1)NC(=S)Nc1ccc(OC2OC(CO)C(O)C(OCC(=O)[O-])C2O)cc1)C(=O)Nc1ccc2nc3n(c(=O)c2c1)Cc1ccccc1-3.[Na+].[Na+] [Example 6.81, N-{N^α,N^ε -Bis-[O-(3-O-carboxymethyl-β-D-galactopyranosyl)-4hydroxy-phenylamino-thiocarbonyl]-lysyl-D-alanyl}-batracyline, di-sodium salt]
IC50 (HT 29; [2]): 30 µM
IC50 (SW 480; [2]): 30 µM
acute toxicity detected [1]: no acute toxicity
individual dose of the substances which can be tolerated [1]: more than 200 mg of substance per kg of mouse
Individual dose tolerated in mg/kg of mouse, i.v. [1]: > 400 mg/kg of mouse

CO[C@H]1[C@H](O)[C@@H](Oc2ccc(Nc3nc(NCCO)nc(NCCCC[C@H](N)C(=O)N[C@H](C)C(=O)Nc4ccc5c(=O)n6c(nc5c4)-c4ccccc4C6)n3)cc2)O[C@@H](C)[C@H]1O.O=C(O)C(F)(F)F [Example 8.2, N-{N^ε -[4-Hydroxyethylamino-2-[O-(3-O-methyl-β-L-fucosyl)-4-hydroxy-phenylamino]-triazin-6-yl]-lysyl-D-alanyl}-batracyline, trifluoroacetate]
individual dose of the substances which can be tolerated [1]: more than 200 mg of substance per kg of mouse
Individual dose tolerated in mg/kg of mouse, i.p. [1]: > 200 mg/kg of mouse

CO[C@H]1[C@H](O)[C@@H](Oc2ccc(NC(=S)NCCCC[C@@H](NC(=S)Nc3ccc(O[C@H]4O[C@@H](C)[C@@H](O)[C@@H](OC)[C@@H]4O)cc3)C(=O)NC3C=CCC4CN(c5c(F)cc6c(=O)c(C(=O)[O-])cn(C7CC7)c6c5Cl)CC43)cc2)O[C@@H](C)[C@H]1O.[Na+] (stereo partly drawn) [Example 11.12, N-{N^α,N^ε -Bis-[O-(3-O-methyl-β-L-fucosyl)-4-hydroxy-phenylamino-thiocarbonyl]-D-lysyl}-quinolone-a, sodium salt]
% survivors Day 0 (B16F10 tumour; 1 mg/kg): 100%
% survivors Day 20 (B16F10 tumour; 1 mg/kg): 90%
% survivors Day 25 (B16F10 tumour; 1 mg/kg): 60%
% survivors Day 30 (B16F10 tumour; 1 mg/kg): 30%
% survivors Day 35 (B16F10 tumour; 1 mg/kg): 30%
% survivors Day 0 (B16F10 tumour; 100 mg/kg): 100%
% survivors Day 20 (B16F10 tumour; 100 mg/kg): 100%
% survivors Day 25 (B16F10 tumour; 100 mg/kg): 100%
% survivors Day 30 (B16F10 tumour; 100 mg/kg): 90%
% survivors Day 35 (B16F10 tumour; 100 mg/kg): 90%

COc1cccc2c1C(=O)c1c(O)c3c(c(O)c1C2=O)CC(O)(C(=O)CO)CC3OC1CC(NC(=O)C(C)NC(=O)C(CCCCNC(=S)Nc2ccc(OC3OC(C)C(O)C(OC)C3O)cc2)NC(=S)Nc2ccc(OC3OC(C)C(O)C(OC)C3O)cc2)C(O)C(C)O1 [Example 17.2, N-{N^α,N^ε -Bis-[O-(3-O-methyl-β-L-fuccopyranosyl)-4-hydroxy-phenylamino-thiocarbonyl]-D-lysyl-alanyl}-doxorubicin]
IC50 (HT 29; Table 1b): 4 µM
IC50 (SW 480; Table 1b): 4 µM
IC50 (B 16 F 10): 4 µM

CCC1(OC(=O)C(C)NC(=O)C(CCCCNC(=S)Nc2ccc(OC3OC(C)C(O)C(OC)C3O)cc2)NC(=S)Nc2ccc(OC3OC(C)C(O)C(OC)C3O)cc2)C(=O)OCc2c1cc1n(c2=O)Cc2cc3ccccc3nc2-1 [Example 18.1, 20-O-{N^α,N^ε -Bis-[O-(3-O-methyl-β-L-fucopyranosyl)-4-hydroxy-phenylamino-thiocarbonyl]-lysyl-alanyl}-camptothecin]
IC50 (HT 29; Table 1b): 0.01 µM
IC50 (SW 480; Table 1b): 0.03 µM
IC50 (B 16 F 10): 0.2 µM

CCC1(OC(=O)C(C)NC(=O)C(CCCCN)NC(=S)Nc2ccc(OC3OC(C)C(O)C(OCC(=O)O)C3O)cc2)C(=O)OCc2c1cc1n(c2=O)Cc2cc3ccccc3nc2-1 (stereo not drawn) [Example 18.2, 20-O-{N^α -[O-(3-O-Carboxymethyl-β-fucopyranosyl)-4hydroxy-phenylamino-thiocarbonyl]-lysyl-alanyl}-camptothecin]
IC50 (HT 29; Table 1b): 0.02 µM
IC50 (SW 480; Table 1b): 0.02 µM
IC50 (B 16 F 10): 0.2 µM

CCC1(OC(=O)C(C)NC(=O)C(CCCCNC(=S)Nc2ccc(OC3OC(C)C(O)C(OC)C3O)cc2)NC(=S)Nc2ccc(OC3OC(C)C(O)C(OC)C3O)cc2)C(=O)OCc2c1cc1n(c2=O)Cc2cc3ccccc3nc2-1 [Example 18.4, 20-O-{N^α,N^ε -Bis-[O-(3-O-methyl-β-L-fucopyranosyl)-4-hydroxy-phenylamino-thiocarbonyl]-lysyl-D-alanyl}-camptothecin]
IC50 (HT 29; Table 1b): 0.02 µM
IC50 (SW 480; Table 1b): 0.02 µM
IC50 (B 16 F 10): 0.3 µM

CCC1(OC(=O)C(NC(=O)C(CCCCNC(=S)Nc2ccc(OC3OC(C)C(O)C(OC)C3O)cc2)NC(=S)Nc2ccc(OC3OC(C)C(O)C(OC)C3O)cc2)C(C)C)C(=O)OCc2c1cc1n(c2=O)Cc2cc3ccccc3nc2-1 [Example 18.5, 20-O-{N^α,N^ε -Bis-[O-(3-O-methyl-β-L-fucopyranosyl)-4-hydroxy-phenylamino-thiocarbonyl]-lysyl-valinyl}-camptothecin]
IC50 (HT 29; Table 1b): 0.2 µM
IC50 (SW 480; Table 1b): 0.2 µM
IC50 (B 16 F 10): 1 µM

CCC1(OC(=O)[C@@H](NC(=O)[C@H](CCCCN)NC(=S)Nc2ccc(O[C@H]3O[C@@H](C)[C@@H](O)[C@@H](OCC(=O)O)[C@@H]3O)cc2)C(C)C)C(=O)OCc2c1cc1n(c2=O)Cc2cc3ccccc3nc2-1 (stereo partly drawn) [Example 18.9, 20-O-{N^α [O-(3-O-Carboxymethyl-β-L-fucopyranosyl)-4-hydroxy-phenylamino-thiocarbonyl]-lysyl-valinyl}-camptothecin, hydrochloride]
IC50 (HT 29; Table 1b): 0.06 µM
IC50 (SW 480; Table 1b): 0.08 µM
IC50 (B 16 F 10): 0.7 µM

CC[C@@]1(OC(=O)[C@H](C)NC(=O)[C@H](CCCCN)NC(=S)Nc2ccc(O[C@H]3O[C@@H](C)[C@@H](O)[C@@H](OC)[C@@H]3O)cc2)C(=O)OCc2c1cc1n(c2=O)Cc2cc3ccccc3nc2-1 [Example 18.14, 20-O-{N^α -[O-(3-O-Methyl-β-L-fucopyranosyl)-4-hydroxy-phenylamino-thiocarbonyl]-lysyl-alanyl}-camptothecin, hydrochloride]
IC50 (HT 29; Table 1b): 0.01 µM
IC50 (SW 480; Table 1b): 0.015 µM
IC50 (B 16 F 10): 0.08 µM

N-[Lysyl-D-alanyl]-batracyline, di-trifluoroacetate [Example 2.13]
Individual dose tolerated in mg/kg of mouse, i.p. [1]: 50 mg/kg of mouse
Individual dose tolerated in mg/kg of mouse, i.v. [1]: 25 mg/kg of mouse

N-{N^α,N^ε -Bis-[O-(β-L-fucosyl)-4-hydroxy-phenylamino-thiocarbonyl]-lysyl-D-ala nyl}-batracyline [Example 6.14]
acute toxicity detected [1]: no acute toxicity
individual dose of the substances which can be tolerated [1]: more than 200 mg of substance per kg of mouse
Individual dose tolerated in mg/kg of mouse, i.p. [1]: > 400 mg/kg of mouse

N-{N^ε -[O-(3,4-Di-O-methyl-β-D-galactopyranosyl)-4-hydroxy-phenylamino-thio carbonyl]-lysyl-D-alanyl}-batracyline, trifluoroacetate [Example 3.16]
individual dose of the substances which can be tolerated [1]: more than 200 mg of substance per kg of mouse
Individual dose tolerated in mg/kg of mouse, i.p. [1]: > 200 mg/kg of mouse

Reference: US6271342A, “Sugar-modified cytostatics” (Bayer Aktiengesellschaft, priority 1995, dated 2001)
